For 64 compounds, melting point results are on record in a melting point compilation (Tetko et al.; mined from patent text by program, amines drawn as free bases though some values may be those of a salt).

As for `Clc1ccc(C(c2ccccc2)N2CCN(c3nc4cccc5c4n3CCC5)CC2)cc1` (centres undefined), the melting point (in general, the temperature, or range, at which the solid turns liquid) lay in the range of 167 to 169 °C.

The compound `CC(=O)Nc1c(C(=O)c2cnccn2)[nH]c2cc(Cl)ccc12` displayed a melting point of 269 to 271 °C.

For `COc1ccc(C2(CCCCl)S(=O)CCCS2=O)cc1OC` (centres undefined), the melting point lay in the range of 163 to 164 °C.

On to `Cc1nc(CC(N)=O)no1`, for which the melting point was 112 to 114 °C.

`Cc1cc([N+](=O)[O-])ccc1NC(=O)c1cc(C(C)(C)C)ccc1O` gave a melting point of 202 to 204 °C.

In the case of `CCCc1c(C(OC)OC)cc([N+](=O)[O-])c(OC)c1OC`, the melting point is 52.1 to 54 °C.

For `OCCNC(c1ccccc1)(c1ccccc1)c1ccccc1`, the melting point was in the range of 94 to 97 °C.

The compound `CC(O)Cc1cnn(-c2c(Cl)cc(C(F)(F)F)cc2Cl)n1` (centres undefined) came in with a melting point of 68 to 69 °C.

In turn, `Cc1ccc(-c2nc3ccc(C)cn3c2C(O)C(=O)N(C)C)cc1` (centres undefined) displayed a melting point of 175 to 177 °C.

`OC(CCn1ccnc1)c1ccc(Br)cc1` (centres undefined) displayed a melting point of 104 to 110 °C.

For the compound `COc1ccc(NC(=O)c2cc(N)ccc2NC(=O)c2ccc(C(C)(C)C)cc2)cc1`, the melting point fell in the range of 212 to 214 °C.

For the compound `Cc1nnsc1C(=O)Nc1ccc(-n2nc(C(F)(F)F)cc2C2CC2)cc1`, the melting point lay within 84 to 89 °C.

Consider `O=C(Nc1cc2ncc(CN3CCCC3)cc2cc1N1CCCC1)c1ccc(Br)cc1`, for which the melting point lay within 171 to 173 °C.

As for `CCOC(=O)c1nc(-c2cccnc2)[nH]c1N=NN(C)C`, the melting point is 125 °C.

On to `CN(C)C(=O)C1Cc2ccc(N)cc2NC1=O` (centres undefined), for which the melting point fell in the range of 219 to 223 °C.

`C1CNC2CNCC2C1` (centres undefined) yielded a melting point of 65 to 67 °C.

`COc1ccc(-c2ccc(NCc3ccccc3)nn2)cc1OC1CCCC1` had a melting point of 116 °C.

Consider `O=C(CC1(c2ccc(OCc3ccc4ccccc4n3)cc2)CCCC1)NS(=O)(=O)Cc1ccccc1`, for which the melting point is 171 °C.

In turn, `CCC1Cc2cc(OCC(=O)O)cc(Br)c2C1=O` (centres undefined) had a melting point of 146 to 148 °C.

For the compound `Cc1cc(C(=O)NCc2ccccc2)c(N)s1`, the melting point stood at 170 °C.

`COC(=O)n1cc(C)c2c(OCc3ccccc3)c(OC)ccc21` returned a melting point of 124 °C.

Turning to `OCCOC12CC(CO)CNC1Cc1c[nH]c3cccc2c13` (centres undefined), the melting point is 198 to 205 °C.

The compound `Cc1cc(C)c(C[C@@H](C(=O)[C@H](Cc2c(C)cc(C)cc2C)N2C(=O)c3ccccc3C2=O)N2C(=O)c3ccccc3C2=O)c(C)c1` yielded a melting point of 142 to 143 °C.

Take `C=C1SC(=O)N(c2ccc3cc(-c4ccc(O)c(C(C)(C)C)c4)ccc3c2)C1=O`: the melting point fell in the range of 276 to 278 °C.

As for `CCCCCCCCOc1ccc(-c2ccc(C(=O)Oc3ccc(C(C)(Br)C(=O)OC)cc3)cc2)cc1` (centres undefined), the melting point is 104 to 105 °C.

Turning to `Cc1n[nH]c2c1C(=O)CC(c1cc(Cl)sc1Cl)C2` (centres undefined), the melting point was in the range of 167 to 168 °C.

In turn, `CC(C)c1c(CO)c(-c2ccc(F)cc2)nn1-c1ccccc1` yielded a melting point of 144 to 147 °C.

In turn, `Cc1oc(-c2ccccc2)nc1CNCc1ccc(C[C@@H](C(=O)O)n2cccc2)cc1` registered a melting point of 163 to 165 °C.

`COc1cccc(C(=O)Nc2ccc(N3CCOCC3)cc2C(C)=O)c1OC` came in with a melting point of 146 to 148 °C.

Take `CNS(=O)(=O)c1ccc([N+](=O)[O-])cc1[N+](=O)[O-]`: the melting point amounted to 155 °C.

`CC(=O)OCC1OC(n2c(=S)[nH]c3cc(Cl)c(Cl)cc32)C(OC(C)=O)C1OC(C)=O` (centres undefined) displayed a melting point of 241 °C.

Turning to `Cc1nnc2n1-c1ccc(Cl)cc1C(c1ccccc1)=CC2`, the melting point was 235 °C.

As to `CCC(CC)OC(=O)N1CCC(c2nc3cc(-c4ccc(-n5cnnn5)cc4F)ccc3o2)CC1`, the melting point was in the range of 114 to 117 °C.

For the compound `CCOC(=O)c1ccc(NC(=O)N(CCc2ccccc2)c2ccc3c(c2)C(C)(C)CCC3(C)C)cc1`, the melting point lay within 223 to 225 °C.

As to `CCCCNC(=O)Oc1ccc2c(c1)c(C)cn2NCCCc1ccncc1F`, the melting point lay within 83 to 84 °C.

`C=C=CC1(NC(=O)c2ccccc2)CCCNC1=O` (centres undefined) showed a melting point of 203 to 204 °C.

In turn, `CCCCCC(CC(=O)Nc1cc(C(N)=O)ccc1C(C)(C)C)c1cccc(OC)c1O` (centres undefined) returned a melting point of 118 to 121 °C.

On to `O=[N+]([O-])c1ccc2c(c1-c1n[nH]cc1Cl)OC(F)(F)O2`, for which the melting point worked out at 180 °C.

For the compound `Fc1ccc2ncc3ncn(-c4ccccc4F)c3c2c1`, the melting point was in the range of 162 to 163 °C.

Take `CCCCc1nc2cc(Cl)c(Cl)cc2n1Cc1ccc(C(=O)O)cc1`: the melting point was in the range of 244 to 246 °C.

On to `S=c1[nH]ccn1OCc1cccnc1`, for which the melting point fell in the range of 128 to 129 °C.

`C=CCc1c(-c2cc(=O)c3c(O)cc(OCc4ccccc4)cc3o2)ccc(OC)c1O`: the melting point was 234 °C.

For the compound `Nc1ccc(Sc2ccc3c(c2)OCC(=O)N3)cc1`, the melting point lay in the range of 232 to 234 °C.

The compound `O=C(O)[C@H](CCc1ccc(F)cc1F)NC(=O)C(F)(F)F` registered a melting point of 62 to 83.5 °C.

Consider `O=C(O)c1nc2ccccc2n(Cc2ccccc2)c1=O`, for which the melting point is 149 to 150 °C.

In the case of `COc1ccc(CC2SC(=O)NC2=O)cc1NC(=O)Cc1ccc(C(F)(F)F)cc1` (centres undefined), the melting point was in the range of 147 to 149 °C.

On to `CCOC(=O)C1SCCc2cc(OC)c(OC)cc21` (centres undefined), for which the melting point lay in the range of 96 to 98 °C.

Turning to `CN(C)CCOc1ccc(C(=O)c2c(-c3ccc(O)cc3)sc3cc(O)ccc23)cc1`, the melting point was in the range of 141 to 144 °C.

For `Nc1nc2ccc(NC(=O)c3ccccc3)cc2s1`, the melting point lay in the range of 213 to 215 °C.

As for `CC(C)(C)c1ccc(N)c([N+](=O)[O-])c1`, the melting point was in the range of 107 to 108 °C.

`O=c1c(-c2ccc(Cl)cc2)c2c(cn1CO)Sc1ccccc1N2` yielded a melting point greater than 300 °C.

Regarding `N#CCCNC(=O)c1cc(F)cc(-c2cccc3cc(Cc4ccc(F)c(Cl)c4)sc23)c1`, the melting point lay within 127 to 128 °C.

Compound `Oc1ccc(Oc2ccc(OCC(O)CCc3cccnc3)cc2)cc1` (centres undefined) had a melting point of 89 to 91 °C.

Compound `O=C(CNS(=O)(=O)c1ccccc1)c1ccc(OCc2ccccc2)cc1` displayed a melting point of 148 to 149 °C.

`CC(C)(C)OC(=O)NCCc1ccc(Oc2c(Cl)cnc(C(F)(F)F)c2Cl)cc1` came in with a melting point of 137 to 140 °C.

As for `CC(=O)OC1CSC(Oc2cnccc2-c2ccncc2)C(OC(C)=O)C1OC(C)=O` (centres undefined), the melting point turned out to be 185 °C.

`Cc1cnc(-c2ssc(=S)c2C)cn1` registered a melting point of 162 to 163 °C.

`COC(=O)c1ccc(-c2cc(-c3ccc(Cl)cc3)on2)cc1` gave a melting point of 225 to 226 °C.

In turn, `Cc1nnc(-c2ccc3ccn(-c4ccc(S(C)=O)cc4)c3c2)o1` (centres undefined) registered a melting point of 215 to 216 °C.

Compound `CN(N)C(=O)N=C1CCC(CC2CCC(=NC(=O)N(C)N)CC2)CC1` (centres undefined) yielded a melting point of 187 to 193 °C.

The compound `Nc1ccc(F)c(N2C(=O)C3=C(CCCC3)C2=O)c1` had a melting point of 134 to 136 °C.

For `Cc1c(C)c2c(c(C)c1O)C(CBr)C(C)(C)O2` (centres undefined), the melting point was in the range of 79 to 80 °C.

As to `Fc1cccc(F)c1-c1cnc(-c2ccc(Br)cc2)nn1`, the melting point fell in the range of 167 to 169 °C.

For `NC(=O)C1=NN(c2cccc(COc3ccccc3)c2)C(c2ccccc2)N1` (centres undefined), the melting point lay in the range of 177 to 178 °C.
